# Assay results from ChEMBL document CHEMBL3297661, “1-Substituted-5-[(3,5-dinitrobenzyl)sulfanyl]-1H-tetrazoles and their isosteric analogs: A new class of selective antitubercular agents active against drug-susceptible and multidrug-resistant mycobacteria” (Eur J Med Chem, 2014).
# System: Mycobacterium avium
# Experiment: Antimycobacterial activity against Mycobacterium avium CNCTC My 330/88 after 21 days by micromethod
# Type: functional
# Details: CNCTC My 330/88, 504 h
row,SMILES,MIC
1,O=[N+]([O-])c1cc(C[Se]c2nnnn2C2CCCCC2)cc([N+](=O)[O-])c1,32 µM

# System: Staphylococcus epidermidis
# Experiment: Antibacterial activity against Staphylococcus epidermidis H 6966/08 after 48 hrs by broth microdilution method
# Type: functional
# Details: H 6966/08, 48 h
row,SMILES,IC95
1,O=[N+]([O-])c1cc(C[Se]c2nnnn2C2CCCCC2)cc([N+](=O)[O-])c1,> 500 µM

# System: Mycobacterium kansasii
# Experiment: Antimycobacterial activity against Mycobacterium kansasii 6509/96 after 14 days by micromethod
# Type: functional
# Details: 6509/96, 336 h
row,SMILES,MIC
1,O=[N+]([O-])c1cc(C[Se]c2nnnn2C2CCCCC2)cc([N+](=O)[O-])c1,4 µM

# System: Lichtheimia corymbifera
# Experiment: Antifungal activity against Absidia corymbifera 272 after 48 hrs by broth microdilution method
# Type: functional, organism-based
# Details: Lichtheimia corymbifera, 272, 48 h
row,SMILES,IC50
1,O=[N+]([O-])c1cc(C[Se]c2nnnn2C2CCCCC2)cc([N+](=O)[O-])c1,> 500 µM

# System: Mycobacterium tuberculosis
# Experiment: Antimycobacterial activity against Mycobacterium tuberculosis CNCTC My 331/88 after 21 days by micromethod
# Type: functional
# Details: CNCTC My 331/88, 504 h
row,SMILES,MIC
1,O=[N+]([O-])c1cc(C[Se]c2nnnn2C2CCCCC2)cc([N+](=O)[O-])c1,2 µM

# System: not listed separately
# Experiment: Cytotoxicity against MDCK2 cells assessed as cell viability at 30 uM after 48 hrs by MTT assay
# Type: cell-based, Canis lupus familiaris, MDCK-II
# Details: dog, read-out: Activity
row,SMILES,"viability at 48 h, 30 µM"
1,O=[N+]([O-])c1cc(C[Se]c2nnnn2C2CCCCC2)cc([N+](=O)[O-])c1,7%

# System: Staphylococcus epidermidis
# Experiment: Antibacterial activity against Staphylococcus epidermidis H 6966/08 after 24 hrs by broth microdilution method
# Type: functional
# Details: H 6966/08, 24 h
row,SMILES,IC95
1,O=[N+]([O-])c1cc(C[Se]c2nnnn2C2CCCCC2)cc([N+](=O)[O-])c1,> 500 µM

# System: Staphylococcus aureus
# Experiment: Antibacterial activity against methicillin-resistant Staphylococcus aureus H 5996/08 after 24 hrs by broth microdilution method
# Type: functional
# Details: H 5996/08, 24 h
row,SMILES,IC95
1,O=[N+]([O-])c1cc(C[Se]c2nnnn2C2CCCCC2)cc([N+](=O)[O-])c1,> 500 µM

# System: Trichosporon asahii
# Experiment: Antifungal activity against Trichosporon asahii 1188 after 48 hrs by broth microdilution method
# Type: functional
# Details: Trichosporon asahii, 1188, 48 h
row,SMILES,IC80
1,O=[N+]([O-])c1cc(C[Se]c2nnnn2C2CCCCC2)cc([N+](=O)[O-])c1,> 500 µM

# System: Nakaseomyces glabratus
# Experiment: Antifungal activity against Candida glabrata 20/I after 24 hrs by broth microdilution method
# Type: functional
# Details: not given
row,SMILES,IC80
1,O=[N+]([O-])c1cc(C[Se]c2nnnn2C2CCCCC2)cc([N+](=O)[O-])c1,> 500 µM

# System: Staphylococcus aureus
# Experiment: Antibacterial activity against Staphylococcus aureus ATCC 6538 after 24 hrs by broth microdilution method
# Type: functional
# Details: ATCC 6538, 24 h
row,SMILES,IC95
1,O=[N+]([O-])c1cc(C[Se]c2nnnn2C2CCCCC2)cc([N+](=O)[O-])c1,> 500 µM

# System: Mycobacterium kansasii
# Experiment: Antimycobacterial activity against Mycobacterium kansasii CNCTC My 235/80 after 7 days by micromethod
# Type: functional
# Details: CNCTC My 235/80, 168 h
row,SMILES,MIC
1,O=[N+]([O-])c1cc(C[Se]c2nnnn2C2CCCCC2)cc([N+](=O)[O-])c1,1 µM

# System: Nakaseomyces glabratus
# Experiment: Antifungal activity against Candida glabrata 20/I after 48 hrs by broth microdilution method
# Type: functional
# Details: not given
row,SMILES,IC80
1,O=[N+]([O-])c1cc(C[Se]c2nnnn2C2CCCCC2)cc([N+](=O)[O-])c1,> 500 µM

# System: Pseudomonas aeruginosa
# Experiment: Antibacterial activity against Pseudomonas aeruginosa ATCC 9027 after 48 hrs by broth microdilution method
# Type: functional
# Details: ATCC 9027, 48 h
row,SMILES,IC95
1,O=[N+]([O-])c1cc(C[Se]c2nnnn2C2CCCCC2)cc([N+](=O)[O-])c1,> 500 µM

# System: Escherichia coli
# Experiment: Antibacterial activity against Escherichia coli ATCC 8739 after 48 hrs by broth microdilution method
# Type: functional
# Details: ATCC 8739, ATCC 8739, 48 h
row,SMILES,IC95
1,O=[N+]([O-])c1cc(C[Se]c2nnnn2C2CCCCC2)cc([N+](=O)[O-])c1,> 500 µM

# System: Aspergillus fumigatus
# Experiment: Antifungal activity against Aspergillus fumigatus 231 after 48 hrs by broth microdilution method
# Type: functional, organism-based
# Details: Aspergillus fumigatus, 231, 48 h
row,SMILES,IC50
1,O=[N+]([O-])c1cc(C[Se]c2nnnn2C2CCCCC2)cc([N+](=O)[O-])c1,> 500 µM

# System: Staphylococcus aureus
# Experiment: Antibacterial activity against methicillin-resistant Staphylococcus aureus H 5996/08 after 48 hrs by broth microdilution method
# Type: functional
# Details: H 5996/08, 48 h
row,SMILES,IC95
1,O=[N+]([O-])c1cc(C[Se]c2nnnn2C2CCCCC2)cc([N+](=O)[O-])c1,> 500 µM

# System: not listed separately
# Experiment: Cytotoxicity against human HuH7 cells assessed as cell viability at 30 uM after 48 hrs by MTT assay
# Type: cell-based, Huh-7
# Details: read-out: Activity
row,SMILES,"viability at 48 h, 30 µM"
1,O=[N+]([O-])c1cc(C[Se]c2nnnn2C2CCCCC2)cc([N+](=O)[O-])c1,125%

# System: not listed separately
# Experiment: Cytotoxicity against human HeLa cells assessed as cell viability at 30 uM after 48 hrs by MTT assay
# Type: cell-based
# Details: read-out: Activity
row,SMILES,"viability at 48 h, 30 µM"
1,O=[N+]([O-])c1cc(C[Se]c2nnnn2C2CCCCC2)cc([N+](=O)[O-])c1,66%

# System: Candida albicans
# Experiment: Antifungal activity against Candida albicans ATCC 44859 after 48 hrs by broth microdilution method
# Type: functional
# Details: ATCC 44859, 48 h
row,SMILES,IC80
1,O=[N+]([O-])c1cc(C[Se]c2nnnn2C2CCCCC2)cc([N+](=O)[O-])c1,> 500 µM

# System: Klebsiella pneumoniae
# Experiment: Antibacterial activity against extended spectrum beta-lactamase producing Klebsiella pneumoniae J 14368/08 after 48 hrs by broth microdilution method
# Type: functional
# Details: J 14368/08, 48 h
row,SMILES,IC95
1,O=[N+]([O-])c1cc(C[Se]c2nnnn2C2CCCCC2)cc([N+](=O)[O-])c1,> 500 µM

# System: Mycobacterium avium
# Experiment: Antimycobacterial activity against Mycobacterium avium CNCTC My 330/88 after 14 days by micromethod
# Type: functional
# Details: CNCTC My 330/88, 336 h
row,SMILES,MIC
1,O=[N+]([O-])c1cc(C[Se]c2nnnn2C2CCCCC2)cc([N+](=O)[O-])c1,32 µM

# System: Candida albicans
# Experiment: Antifungal activity against Candida albicans ATCC 44859 after 24 hrs by broth microdilution method
# Type: functional
# Details: ATCC 44859, 24 h
row,SMILES,IC80
1,O=[N+]([O-])c1cc(C[Se]c2nnnn2C2CCCCC2)cc([N+](=O)[O-])c1,> 500 µM

# System: Mycobacterium tuberculosis
# Experiment: Antimycobacterial activity against Mycobacterium tuberculosis CNCTC My 331/88 after 14 days by micromethod
# Type: functional
# Details: CNCTC My 331/88, 336 h
row,SMILES,MIC
1,O=[N+]([O-])c1cc(C[Se]c2nnnn2C2CCCCC2)cc([N+](=O)[O-])c1,1 µM

# System: Pichia kudriavzevii
# Experiment: Antifungal activity against Candida krusei E28 after 48 hrs by broth microdilution method
# Type: functional
# Details: E28, 48 h
row,SMILES,IC80
1,O=[N+]([O-])c1cc(C[Se]c2nnnn2C2CCCCC2)cc([N+](=O)[O-])c1,> 500 µM
